Source: ChEMBL document CHEMBL4339202, “Benzothiophene derivatives as phosphodiesterase 10A (PDE10A) inhibitors: Hit-to-lead studies” (Bioorg Med Chem Lett, 2019)
Blank lines part the entries; values can stand above or below the molecule they belong to.

How the values were obtained:
[1] = molecular target: cAMP and cAMP-inhibited cGMP 3',5'-cyclic phosphodiesterase 10A (Homo sapiens, UniProt Q9Y233); experiment: Inhibition of human MOLT4 cell-derived PDE10A using [3H]cAMP as substrate measured after 2 hrs in presence of rolipram/milrinone by topcount method
cAMP and cAMP-inhibited cGMP 3',5'-cyclic phosphodiesterase 10A, sequence (Q9Y233 whole entry): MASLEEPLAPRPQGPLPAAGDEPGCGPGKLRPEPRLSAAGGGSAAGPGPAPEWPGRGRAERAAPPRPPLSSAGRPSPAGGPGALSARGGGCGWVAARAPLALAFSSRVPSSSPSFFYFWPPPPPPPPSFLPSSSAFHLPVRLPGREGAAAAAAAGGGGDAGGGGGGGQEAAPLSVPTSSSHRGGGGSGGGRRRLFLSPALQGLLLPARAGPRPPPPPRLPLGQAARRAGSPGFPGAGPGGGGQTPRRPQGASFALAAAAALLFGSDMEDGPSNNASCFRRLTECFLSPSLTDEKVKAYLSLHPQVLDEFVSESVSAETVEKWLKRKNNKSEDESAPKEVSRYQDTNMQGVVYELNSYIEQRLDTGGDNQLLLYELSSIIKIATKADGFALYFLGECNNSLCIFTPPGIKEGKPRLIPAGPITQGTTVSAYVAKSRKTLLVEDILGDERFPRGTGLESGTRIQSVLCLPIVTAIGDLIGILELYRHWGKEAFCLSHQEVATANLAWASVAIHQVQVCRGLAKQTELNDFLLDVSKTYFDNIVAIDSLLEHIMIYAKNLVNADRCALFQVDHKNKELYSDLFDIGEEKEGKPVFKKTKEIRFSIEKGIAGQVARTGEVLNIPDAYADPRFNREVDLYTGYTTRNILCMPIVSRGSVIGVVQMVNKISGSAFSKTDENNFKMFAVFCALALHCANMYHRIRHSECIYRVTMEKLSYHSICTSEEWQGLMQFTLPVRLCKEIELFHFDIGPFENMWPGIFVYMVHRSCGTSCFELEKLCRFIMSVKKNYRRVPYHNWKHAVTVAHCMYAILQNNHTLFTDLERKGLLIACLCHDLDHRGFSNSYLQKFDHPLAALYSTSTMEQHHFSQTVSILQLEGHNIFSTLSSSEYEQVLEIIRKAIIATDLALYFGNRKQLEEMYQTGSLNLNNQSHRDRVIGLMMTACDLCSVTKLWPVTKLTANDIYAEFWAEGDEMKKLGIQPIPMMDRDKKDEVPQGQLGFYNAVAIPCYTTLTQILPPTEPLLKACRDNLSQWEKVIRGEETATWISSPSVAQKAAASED

Mus musculus [2] = species: Mus musculus; experiment: Inhibition of Balb/c mouse liver PDE1 at 30 ug/ml using [3H]cAMP as substrate measured after 2 hrs in presence of calmodulin by topcount method relative to control
Mus musculus [3] = species: Mus musculus; experiment: Inhibition of Balb/c mouse liver PDE4 at 30 ug/ml using [3H]cAMP as substrate measured after 2 hrs by topcount method relative to control
Phosphodiesterase 7 [4] = molecular target: T1, Phosphodiesterase 7 (Homo sapiens, UniProt Q13946+Q9NP56); experiment: Inhibition of human MOLT4 cell-derived PDE7 at 30 ug/ml using [3H]cAMP as substrate measured after 2 hrs in presence of rolipram/milrinone by topcount method relative to control; assay type: protein assay
T1 sequence (Q13946 whole entry, looked up): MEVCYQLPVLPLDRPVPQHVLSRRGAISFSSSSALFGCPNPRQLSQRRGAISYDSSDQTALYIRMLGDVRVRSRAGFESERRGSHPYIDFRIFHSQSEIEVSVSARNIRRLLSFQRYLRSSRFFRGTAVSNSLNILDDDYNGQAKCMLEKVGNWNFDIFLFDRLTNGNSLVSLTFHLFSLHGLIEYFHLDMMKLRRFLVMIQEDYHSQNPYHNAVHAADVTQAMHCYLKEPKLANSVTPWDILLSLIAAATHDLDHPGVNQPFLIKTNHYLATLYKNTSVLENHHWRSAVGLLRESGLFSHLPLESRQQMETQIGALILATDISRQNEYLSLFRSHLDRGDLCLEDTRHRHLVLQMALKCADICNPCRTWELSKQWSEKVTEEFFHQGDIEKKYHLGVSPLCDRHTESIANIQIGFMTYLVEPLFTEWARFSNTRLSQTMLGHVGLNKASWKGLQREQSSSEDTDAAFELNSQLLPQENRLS
T1 sequence (Q9NP56 whole entry, looked up): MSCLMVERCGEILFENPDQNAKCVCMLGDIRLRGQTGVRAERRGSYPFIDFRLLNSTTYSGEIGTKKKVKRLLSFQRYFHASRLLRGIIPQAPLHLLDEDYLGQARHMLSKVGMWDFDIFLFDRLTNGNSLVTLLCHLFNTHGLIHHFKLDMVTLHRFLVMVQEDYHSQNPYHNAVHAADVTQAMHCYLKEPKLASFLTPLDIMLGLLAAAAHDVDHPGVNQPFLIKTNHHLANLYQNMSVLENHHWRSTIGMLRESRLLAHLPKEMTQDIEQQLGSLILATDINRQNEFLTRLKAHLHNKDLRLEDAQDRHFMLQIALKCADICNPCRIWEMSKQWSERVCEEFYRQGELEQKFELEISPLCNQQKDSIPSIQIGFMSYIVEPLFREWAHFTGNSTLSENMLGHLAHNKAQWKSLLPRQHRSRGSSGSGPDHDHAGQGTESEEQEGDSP

Mus musculus [5] = species: Mus musculus; experiment: Inhibition of Balb/c mouse liver PDE2 at 30 ug/ml using [3H]cAMP as substrate measured after 2 hrs in presence of cGMP by topcount method relative to control
Mus musculus [6] = species: Mus musculus; experiment: Inhibition of Balb/c mouse lung PDE5 at 30 ug/ml using [3H]cGMP as substrate measured after 2 hrs by topcount method relative to control
CYP3A4 = CYP3A4 (Homo sapiens, UniProt P08684); experiment: Inhibition of CYP3A4 (unknown origin) at 10 uM relative to control; assay type: ADME
CYP3A4, sequence (P08684 whole entry): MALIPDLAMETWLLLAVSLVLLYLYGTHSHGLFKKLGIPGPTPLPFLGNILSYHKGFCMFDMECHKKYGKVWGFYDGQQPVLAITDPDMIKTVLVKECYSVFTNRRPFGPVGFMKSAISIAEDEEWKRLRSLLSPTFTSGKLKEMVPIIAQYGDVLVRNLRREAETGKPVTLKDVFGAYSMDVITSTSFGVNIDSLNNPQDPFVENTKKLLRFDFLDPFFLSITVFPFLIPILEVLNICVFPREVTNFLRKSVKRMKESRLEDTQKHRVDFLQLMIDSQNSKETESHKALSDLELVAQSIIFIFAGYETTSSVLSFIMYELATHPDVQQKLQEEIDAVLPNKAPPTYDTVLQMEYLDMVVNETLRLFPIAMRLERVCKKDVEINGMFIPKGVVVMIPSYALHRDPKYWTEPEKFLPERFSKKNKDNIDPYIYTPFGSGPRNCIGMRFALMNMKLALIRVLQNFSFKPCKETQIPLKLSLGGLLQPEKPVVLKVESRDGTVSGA

hERG (KCNH2) = hERG (KCNH2) (Homo sapiens, UniProt Q12809); experiment: Inhibition of human ERG at 10 uM relative to control
hERG (KCNH2), sequence (Q12809 whole entry): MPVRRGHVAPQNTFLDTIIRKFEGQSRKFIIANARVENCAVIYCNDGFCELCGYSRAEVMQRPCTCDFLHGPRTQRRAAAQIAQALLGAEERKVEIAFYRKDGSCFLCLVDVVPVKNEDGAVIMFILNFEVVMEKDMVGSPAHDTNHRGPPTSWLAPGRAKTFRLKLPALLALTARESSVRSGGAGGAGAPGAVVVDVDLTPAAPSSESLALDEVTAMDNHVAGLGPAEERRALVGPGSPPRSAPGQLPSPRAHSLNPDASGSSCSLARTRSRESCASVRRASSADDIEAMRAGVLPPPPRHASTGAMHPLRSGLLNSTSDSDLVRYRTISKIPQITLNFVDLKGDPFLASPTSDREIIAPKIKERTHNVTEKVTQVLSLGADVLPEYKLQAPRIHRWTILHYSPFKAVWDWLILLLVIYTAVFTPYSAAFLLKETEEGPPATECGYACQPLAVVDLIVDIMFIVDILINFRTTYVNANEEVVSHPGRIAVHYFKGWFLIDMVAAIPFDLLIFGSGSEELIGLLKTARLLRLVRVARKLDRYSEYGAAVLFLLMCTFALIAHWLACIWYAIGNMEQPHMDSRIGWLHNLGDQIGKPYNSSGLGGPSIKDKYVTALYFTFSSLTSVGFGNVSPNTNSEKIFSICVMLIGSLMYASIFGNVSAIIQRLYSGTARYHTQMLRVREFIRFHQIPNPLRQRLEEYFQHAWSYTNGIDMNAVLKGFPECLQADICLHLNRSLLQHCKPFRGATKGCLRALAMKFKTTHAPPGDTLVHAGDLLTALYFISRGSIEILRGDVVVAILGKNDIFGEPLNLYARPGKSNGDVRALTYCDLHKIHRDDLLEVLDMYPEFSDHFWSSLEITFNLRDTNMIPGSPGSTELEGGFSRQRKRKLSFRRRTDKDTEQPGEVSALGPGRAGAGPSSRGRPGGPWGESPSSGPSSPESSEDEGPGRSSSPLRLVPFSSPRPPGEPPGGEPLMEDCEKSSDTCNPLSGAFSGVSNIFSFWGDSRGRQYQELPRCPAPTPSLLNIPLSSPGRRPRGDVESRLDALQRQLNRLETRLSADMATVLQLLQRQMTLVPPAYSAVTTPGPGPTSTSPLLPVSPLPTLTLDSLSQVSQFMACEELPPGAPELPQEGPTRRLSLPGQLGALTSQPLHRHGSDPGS

CYP2D6 = CYP2D6 (Homo sapiens, UniProt P10635); experiment: Inhibition of CYP2D6 (unknown origin) at 10 uM relative to control; assay type: ADME
CYP2D6, sequence (P10635 whole entry): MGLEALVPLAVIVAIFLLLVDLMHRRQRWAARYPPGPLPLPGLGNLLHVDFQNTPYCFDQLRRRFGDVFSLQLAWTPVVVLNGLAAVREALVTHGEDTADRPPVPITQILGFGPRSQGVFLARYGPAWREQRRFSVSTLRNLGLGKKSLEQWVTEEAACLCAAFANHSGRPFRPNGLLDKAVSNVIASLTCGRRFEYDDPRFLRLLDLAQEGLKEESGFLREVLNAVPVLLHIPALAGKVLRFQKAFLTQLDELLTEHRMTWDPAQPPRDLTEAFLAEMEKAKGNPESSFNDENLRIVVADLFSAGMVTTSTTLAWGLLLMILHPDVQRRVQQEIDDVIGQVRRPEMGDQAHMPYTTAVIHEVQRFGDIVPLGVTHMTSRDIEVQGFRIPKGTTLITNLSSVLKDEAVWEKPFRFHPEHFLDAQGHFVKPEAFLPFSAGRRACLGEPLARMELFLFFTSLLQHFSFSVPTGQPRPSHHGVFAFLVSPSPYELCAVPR

[7] = Selectivity ratio of IC50 for Balb/c mouse lung PDE5 to IC50 for human MOLT4 cell-derived PDE10A
[8] = Inhibition of Balb/c mouse liver PDE4 using [3H]cAMP as substrate measured after 2 hrs by topcount method
Homo sapiens = species: Homo sapiens; experiment: Selectivity ratio of IC50 for human MOLT4 cell-derived PDE7 to IC50 for human MOLT4 cell-derived PDE10A
[9] = Inhibition of Balb/c mouse lung PDE5 using [3H]cGMP as substrate measured after 2 hrs by topcount method
[10] = Selectivity ratio of IC50 for Balb/c mouse liver PDE1 to IC50 for human MOLT4 cell-derived PDE10A
[11] = Inhibition of Balb/c mouse liver PDE1 using [3H]cAMP as substrate measured after 2 hrs in presence of calmodulin by topcount method
[12] = Inhibition of Balb/c mouse liver PDE2 using [3H]cAMP as substrate measured after 2 hrs in presence of cGMP by topcount method
[13] = Selectivity ratio of IC50 for Balb/c mouse liver PDE4 to IC50 for human MOLT4 cell-derived PDE10A
[14] = Selectivity ratio of IC50 for Balb/c mouse liver PDE2 to IC50 for human MOLT4 cell-derived PDE10A
Phosphodiesterase 7 [15] = molecular target: T1, Phosphodiesterase 7; experiment: Inhibition of human MOLT4 cell-derived PDE7 using [3H]cAMP as substrate measured after 2 hrs in presence of rolipram/milrinone by topcount method; assay type: protein assay

IC50 [1]: 110 nM
Compound: Cc1c(C(=O)Nc2ccc3ccccc3n2)sc2c(C#N)cccc12

IC50 [1]: 44 nM
Compound: Cc1c(C(=O)Nc2ccc3ccccc3n2)sc2c(C(=O)N(C)C)cccc12

inhibition (Mus musculus [2]): 25 to 50%
inhibition (Mus musculus [3]): 25 to 50%
inhibition (Phosphodiesterase 7 [4]): < 25%
inhibition (Mus musculus [5]): 25 to 50%
inhibition (Mus musculus [6]): 25 to 50%
IC50 [1]: 510 nM
Compound: O=C(Nc1cc2cccccc-2n1)/C(=C/c1ccccc1)c1ccccc1

IC50 [1]: 23 nM
Compound: CNC(=O)c1cccc2c(C)c(C(=O)Nc3ccc4ccccc4n3)sc12

inhibition (Mus musculus [2]): < 25%
inhibition (Mus musculus [3]): < 25%
inhibition (Phosphodiesterase 7 [4]): < 25%
inhibition (Mus musculus [5]): < 25%
inhibition (Mus musculus [6]): < 25%
IC50 [1]: 440 nM
Compound: O=C(Nc1ccc2ccccc2n1)/C(=C/c1ccccc1)c1ccccc1

IC50 [1]: 200 nM
Compound: Cc1c(C(=O)Nc2ccc3ccccc3n2)sc2c(I)cccc12

IC50 [1]: 320 nM
Compound: Cc1c(C(=O)Nc2ccc3ccccc3n2)sc2c(-c3ccoc3)cccc12

IC50 [1]: 62 nM
Compound: Cc1c(C(=O)Nc2ccc3ccccc3n2)sc2c(-c3ccccn3)cccc12

inhibition at 10 µM (CYP3A4): 1%
inhibition at 10 µM (CYP2D6): 45%
IC50 [1]: 4.7 nM
Compound: Cc1c(C(=O)Nc2ccc3ccccc3n2)sc2c(-c3ccncc3)cccc12
inhibition at 10 µM (hERG (KCNH2)): 36%

IC50 [1]: 23 nM
Compound: Cc1c(C(=O)Nc2ccc3ccccc3n2)sc2c(C(N)=O)cccc12

IC50 [1]: 13 nM
Compound: CC(=O)c1ccc(C(C)=O)c2sc(C(=O)Nc3cc(C(C)(C)O)c4ccccc4n3)cc12

Ratio IC50 [7]: > 1300
IC50 [8]: > 10000 nM
inhibition at 10 µM (CYP3A4): 0%
Ratio IC50 (Homo sapiens): > 1300
IC50 [9]: > 10000 nM
Ratio IC50 [10]: > 1300
IC50 [11]: > 10000 nM
IC50 [12]: > 10000 nM
Ratio IC50 [13]: > 1300
inhibition at 10 µM (CYP2D6): 0%
IC50 [1]: 7.6 nM
Ratio IC50 [14]: > 1300
IC50 (Phosphodiesterase 7 [15]): > 10000 nM
Compound: CC(=O)c1cccc2c(C)c(C(=O)Nc3ccc4ccccc4n3)sc12
inhibition at 10 µM (hERG (KCNH2)): 10%

IC50 [1]: 5.2 nM
Compound: CCc1c(C(=O)Nc2ccc3ccccc3n2)sc2c(-c3ccncc3)cccc12

IC50 [1]: 120 nM
Compound: Cc1c(C(=O)Nc2ccc3ccccc3n2)sc2c(-c3cccnc3)cccc12

IC50 [1]: 47 nM
Compound: O=C(Nc1ccc2ccccc2n1)c1cc2cccc(-c3ccncc3)c2s1
